Measured values published in paper PMC4733049, “Characterization of Rv0888, a Novel Extracellular Nuclease from Mycobacterium tuberculosis” (Scientific Reports, 2016).

biological target: T1, Rv0888 (Mycobacterium tuberculosis, UniProt P9WKQ1); assay: DNase inhibition, circular plasmid DNA, agarose gel and A260 spectrophotometry; assay type: biochemical; conditions: pH 6.5, 5 mM CaCl2, 5 mM MnCl2, 41 °C, 1 h
T1 construct: gene spmT
T1 sequence (P9WKQ1 32-490 limits assumed): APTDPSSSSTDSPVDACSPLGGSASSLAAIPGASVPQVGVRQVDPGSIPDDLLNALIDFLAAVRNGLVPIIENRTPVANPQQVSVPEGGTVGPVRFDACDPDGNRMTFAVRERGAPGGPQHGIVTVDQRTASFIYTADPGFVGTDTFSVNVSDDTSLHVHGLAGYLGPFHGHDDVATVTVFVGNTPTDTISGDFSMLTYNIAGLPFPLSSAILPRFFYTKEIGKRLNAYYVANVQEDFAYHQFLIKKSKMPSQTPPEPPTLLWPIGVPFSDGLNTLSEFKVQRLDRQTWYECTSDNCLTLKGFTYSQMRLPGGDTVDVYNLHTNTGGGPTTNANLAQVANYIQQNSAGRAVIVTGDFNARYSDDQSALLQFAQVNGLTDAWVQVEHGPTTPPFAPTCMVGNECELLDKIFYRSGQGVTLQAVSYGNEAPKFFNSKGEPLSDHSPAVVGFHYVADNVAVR

| SMILES | relative DNase activity at 0.5, 1, 2 mM |
| --- | --- |
| CCCCC[C@H](O)CC(=O)CCc1ccc(O)c(OC)c1 [6-Gingerol] | inhibited by four Chinese medicine monomers (Oleuropein, 6-Gingerol, Corylifolinin and Acteoside) |
| C[C@@H]1O[C@@H](O[C@@H]2[C@@H](O)[C@H](OCCc3ccc(O)c(O)c3)O[C@H](CO)[C@H]2OC(=O)/C=C/c2ccc(O)c(O)c2)[C@H](O)[C@H](O)[C@H]1O [Acteoside] | inhibited by four Chinese medicine monomers (Oleuropein, 6-Gingerol, Corylifolinin and Acteoside) |
| CC(C)=CCc1c(O)ccc(C(=O)/C=C/c2ccc(O)cc2)c1O [Corylifolinin] | inhibited by four Chinese medicine monomers (Oleuropein, 6-Gingerol, Corylifolinin and Acteoside) |
| C/C=C1/[C@H](O[C@@H]2O[C@H](CO)[C@@H](O)[C@H](O)[C@H]2O)OC=C(C(=O)OC)[C@H]1CC(=O)OCCc1ccc(O)c(O)c1 [Oleuropein] | inhibited by four Chinese medicine monomers (Oleuropein, 6-Gingerol, Corylifolinin and Acteoside) |
